Article PMC2900928 (Cell, 2010)

Legend:
[1] = molecular target: T1, BT1765 (Bacteroides thetaiotaomicron, UniProt Q8A6W1); test: fructose release; type: biochemical; details: 20 mM Tris-HCl, pH 8.0, 37°C
T1 sequence (Q8A6W1 26-627): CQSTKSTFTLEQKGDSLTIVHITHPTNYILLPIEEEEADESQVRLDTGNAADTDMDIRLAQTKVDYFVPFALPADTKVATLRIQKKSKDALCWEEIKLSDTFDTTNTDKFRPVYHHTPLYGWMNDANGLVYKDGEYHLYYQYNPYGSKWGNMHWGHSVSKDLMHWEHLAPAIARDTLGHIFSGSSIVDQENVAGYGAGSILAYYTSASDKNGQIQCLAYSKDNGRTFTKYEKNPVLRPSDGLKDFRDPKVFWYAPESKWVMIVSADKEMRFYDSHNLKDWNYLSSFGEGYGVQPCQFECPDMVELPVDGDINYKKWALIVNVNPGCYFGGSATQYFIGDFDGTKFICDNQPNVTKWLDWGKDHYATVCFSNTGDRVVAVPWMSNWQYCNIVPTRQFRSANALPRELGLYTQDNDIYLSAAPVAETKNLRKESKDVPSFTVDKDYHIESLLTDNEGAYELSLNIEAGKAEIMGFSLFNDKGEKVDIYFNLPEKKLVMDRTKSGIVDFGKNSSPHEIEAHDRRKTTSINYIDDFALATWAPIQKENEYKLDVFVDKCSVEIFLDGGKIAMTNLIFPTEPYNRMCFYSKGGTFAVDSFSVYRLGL

[2] = molecular target: T2, BT1754-PD (Bacteroides thetaiotaomicron, UniProt Q8A6X1); test: isothermal titration calorimetry; type: binding; details: 20 mM Tris-HCl, pH 8.0; 1:1 stoichiometry, single site
T2 sequence (Q8A6X1 29-343): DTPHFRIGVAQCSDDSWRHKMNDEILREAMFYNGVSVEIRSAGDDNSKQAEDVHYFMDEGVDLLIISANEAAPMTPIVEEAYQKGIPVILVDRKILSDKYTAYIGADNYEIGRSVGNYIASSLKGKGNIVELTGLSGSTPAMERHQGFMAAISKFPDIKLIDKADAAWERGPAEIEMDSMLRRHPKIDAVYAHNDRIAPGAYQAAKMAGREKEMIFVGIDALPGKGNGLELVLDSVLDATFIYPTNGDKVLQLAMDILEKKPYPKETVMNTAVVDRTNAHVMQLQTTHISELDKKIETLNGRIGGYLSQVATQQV

[3] = molecular target: T3, BT3082 (Bacteroides thetaiotaomicron, UniProt Q8A373); test: fructose release; type: biochemical; details: 20 mM Tris-HCl, pH 8.0, 37°C
T3 sequence (Q8A373 21-548): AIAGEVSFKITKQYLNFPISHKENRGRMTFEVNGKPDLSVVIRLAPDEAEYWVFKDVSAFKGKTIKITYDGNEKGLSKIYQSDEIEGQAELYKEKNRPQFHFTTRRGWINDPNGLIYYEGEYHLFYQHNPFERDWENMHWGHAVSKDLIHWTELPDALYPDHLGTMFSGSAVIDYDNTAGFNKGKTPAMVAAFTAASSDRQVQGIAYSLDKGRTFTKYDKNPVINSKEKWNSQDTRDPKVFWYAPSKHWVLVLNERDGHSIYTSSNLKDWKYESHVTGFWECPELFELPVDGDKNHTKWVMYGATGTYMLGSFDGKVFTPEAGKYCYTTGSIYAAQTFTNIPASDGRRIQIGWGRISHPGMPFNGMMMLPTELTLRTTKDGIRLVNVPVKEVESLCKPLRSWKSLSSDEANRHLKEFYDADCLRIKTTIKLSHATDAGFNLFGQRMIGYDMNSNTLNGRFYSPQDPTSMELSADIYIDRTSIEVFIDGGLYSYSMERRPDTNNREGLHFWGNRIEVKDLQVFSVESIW

[4] = molecular target: T4, BT1759 (Bacteroides thetaiotaomicron, UniProt Q8A6W7); test: fructose release; type: biochemical; details: 20 mM Tris-HCl, pH 8.0, 37°C
T4 sequence (Q8A6W7 29-610): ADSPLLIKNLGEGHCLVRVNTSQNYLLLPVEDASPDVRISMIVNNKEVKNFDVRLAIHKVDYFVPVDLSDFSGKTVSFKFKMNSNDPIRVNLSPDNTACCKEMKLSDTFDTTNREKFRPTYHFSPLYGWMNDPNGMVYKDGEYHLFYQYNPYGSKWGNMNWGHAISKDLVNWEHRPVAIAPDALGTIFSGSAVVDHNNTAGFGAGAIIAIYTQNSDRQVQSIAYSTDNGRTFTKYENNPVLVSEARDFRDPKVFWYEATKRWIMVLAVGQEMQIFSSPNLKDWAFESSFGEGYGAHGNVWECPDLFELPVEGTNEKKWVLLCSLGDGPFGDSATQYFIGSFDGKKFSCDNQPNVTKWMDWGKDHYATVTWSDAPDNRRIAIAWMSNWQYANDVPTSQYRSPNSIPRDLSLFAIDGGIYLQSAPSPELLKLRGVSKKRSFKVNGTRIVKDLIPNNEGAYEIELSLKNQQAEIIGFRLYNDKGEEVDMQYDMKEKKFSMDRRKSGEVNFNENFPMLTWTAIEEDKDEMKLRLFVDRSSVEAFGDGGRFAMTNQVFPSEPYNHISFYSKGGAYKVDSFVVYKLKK

Row | SMILES | KM [1] | Kd [2] [nM] | KM [3] | KM [4]
1 | OC[C@H]1O[C@@](CO)(OC[C@H]2OC(O)(CO)[C@@H](O)[C@@H]2O)[C@@H](O)[C@@H]1O (some centres unmarked) [L2, levanbiose] | the enzyme is also able to efficiently degrade levanbiose (Table S2) | – | – | –
2 | OCC1(O)OC[C@@H](O)[C@@H](O)[C@@H]1O (some centres unmarked) [fructose] | – | ~2000 | – | –
3 | OC[C@H]1O[C@@](CO)(O[C@H]2O[C@H](CO)[C@@H](O)[C@H](O)[C@H]2O)[C@@H](O)[C@@H]1O [sucrose] | BT1765 prefers sucrose over any of the other oligo- or polysaccharides tested | – | BT1759 and BT3082 also cleave sucrose | BT1759 and BT3082 also cleave sucrose
